Assay results from ChEMBL document CHEMBL1122963, “[3H]Batrachotoxinin A 20 alpha-benzoate binding to voltage-sensitive sodium channels: a rapid and quantitative assay for local anesthetic activity in a variety of drugs” (J Med Chem, 1985).

These compounds were tested against T1, Sodium channel alpha subunits; brain (Types I, II, III) (Homo sapiens, UniProt P35498+Q99250+Q9NY46) (assay: Inhibition of binding of Batrachotoxinin [3H]BTX-B to high affinity sites on voltage dependent sodium channels in a vesicular preparation from guinea pig cerebral cortex). Conditions: not given.
Format: tissue-based, Cavia porcellus

T1 sequence (Q99250 whole entry, looked up, other chains not shown): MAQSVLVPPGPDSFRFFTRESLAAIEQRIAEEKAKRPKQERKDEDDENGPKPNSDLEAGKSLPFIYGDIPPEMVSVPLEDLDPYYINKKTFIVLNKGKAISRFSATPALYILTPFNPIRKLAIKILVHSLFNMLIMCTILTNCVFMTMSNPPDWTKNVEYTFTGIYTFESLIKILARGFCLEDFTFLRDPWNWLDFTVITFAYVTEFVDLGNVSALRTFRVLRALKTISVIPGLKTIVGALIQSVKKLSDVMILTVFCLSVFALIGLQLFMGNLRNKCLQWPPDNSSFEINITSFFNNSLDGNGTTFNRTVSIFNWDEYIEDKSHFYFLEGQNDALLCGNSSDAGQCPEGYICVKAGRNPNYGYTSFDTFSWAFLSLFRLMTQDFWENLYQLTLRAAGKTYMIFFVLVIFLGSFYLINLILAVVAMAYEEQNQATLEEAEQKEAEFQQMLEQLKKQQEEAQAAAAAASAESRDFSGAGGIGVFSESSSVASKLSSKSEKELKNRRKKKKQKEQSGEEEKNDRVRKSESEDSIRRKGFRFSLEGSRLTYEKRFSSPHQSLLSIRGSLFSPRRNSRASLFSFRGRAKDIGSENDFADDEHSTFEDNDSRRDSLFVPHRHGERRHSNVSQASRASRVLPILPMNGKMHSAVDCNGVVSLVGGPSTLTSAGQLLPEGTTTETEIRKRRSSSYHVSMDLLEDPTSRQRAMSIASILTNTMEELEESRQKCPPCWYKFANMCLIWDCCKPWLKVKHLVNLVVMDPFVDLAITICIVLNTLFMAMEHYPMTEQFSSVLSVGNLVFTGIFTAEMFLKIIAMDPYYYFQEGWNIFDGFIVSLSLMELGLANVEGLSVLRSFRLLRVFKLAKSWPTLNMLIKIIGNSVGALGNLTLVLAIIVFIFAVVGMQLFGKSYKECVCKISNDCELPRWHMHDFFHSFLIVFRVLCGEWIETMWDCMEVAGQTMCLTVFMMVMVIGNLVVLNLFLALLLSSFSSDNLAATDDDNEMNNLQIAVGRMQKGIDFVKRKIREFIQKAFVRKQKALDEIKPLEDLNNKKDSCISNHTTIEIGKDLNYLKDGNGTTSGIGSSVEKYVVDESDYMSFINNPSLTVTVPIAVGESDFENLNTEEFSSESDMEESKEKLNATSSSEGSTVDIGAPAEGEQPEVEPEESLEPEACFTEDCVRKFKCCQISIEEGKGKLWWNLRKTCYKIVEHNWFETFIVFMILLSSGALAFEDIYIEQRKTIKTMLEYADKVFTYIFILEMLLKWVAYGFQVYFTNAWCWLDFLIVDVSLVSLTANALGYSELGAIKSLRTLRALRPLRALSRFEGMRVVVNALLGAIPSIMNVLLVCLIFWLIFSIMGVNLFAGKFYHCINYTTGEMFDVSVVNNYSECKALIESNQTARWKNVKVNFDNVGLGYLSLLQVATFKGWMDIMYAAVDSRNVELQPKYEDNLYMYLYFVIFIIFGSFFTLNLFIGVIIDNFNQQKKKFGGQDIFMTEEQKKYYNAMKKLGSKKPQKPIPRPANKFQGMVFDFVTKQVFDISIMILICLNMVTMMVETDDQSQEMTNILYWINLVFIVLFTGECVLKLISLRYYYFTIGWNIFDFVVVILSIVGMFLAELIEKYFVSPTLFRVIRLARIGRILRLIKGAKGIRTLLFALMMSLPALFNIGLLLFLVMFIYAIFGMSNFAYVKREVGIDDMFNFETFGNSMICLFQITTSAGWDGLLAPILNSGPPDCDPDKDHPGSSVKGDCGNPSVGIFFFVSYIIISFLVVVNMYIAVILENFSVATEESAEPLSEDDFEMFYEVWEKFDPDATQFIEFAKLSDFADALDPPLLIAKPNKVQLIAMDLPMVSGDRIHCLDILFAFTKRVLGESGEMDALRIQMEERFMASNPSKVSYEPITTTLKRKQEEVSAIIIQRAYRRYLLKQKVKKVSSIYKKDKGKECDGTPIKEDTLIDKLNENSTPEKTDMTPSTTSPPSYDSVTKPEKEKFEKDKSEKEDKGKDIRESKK
T1 sequence (Q9NY46 whole entry, looked up, other chains not shown): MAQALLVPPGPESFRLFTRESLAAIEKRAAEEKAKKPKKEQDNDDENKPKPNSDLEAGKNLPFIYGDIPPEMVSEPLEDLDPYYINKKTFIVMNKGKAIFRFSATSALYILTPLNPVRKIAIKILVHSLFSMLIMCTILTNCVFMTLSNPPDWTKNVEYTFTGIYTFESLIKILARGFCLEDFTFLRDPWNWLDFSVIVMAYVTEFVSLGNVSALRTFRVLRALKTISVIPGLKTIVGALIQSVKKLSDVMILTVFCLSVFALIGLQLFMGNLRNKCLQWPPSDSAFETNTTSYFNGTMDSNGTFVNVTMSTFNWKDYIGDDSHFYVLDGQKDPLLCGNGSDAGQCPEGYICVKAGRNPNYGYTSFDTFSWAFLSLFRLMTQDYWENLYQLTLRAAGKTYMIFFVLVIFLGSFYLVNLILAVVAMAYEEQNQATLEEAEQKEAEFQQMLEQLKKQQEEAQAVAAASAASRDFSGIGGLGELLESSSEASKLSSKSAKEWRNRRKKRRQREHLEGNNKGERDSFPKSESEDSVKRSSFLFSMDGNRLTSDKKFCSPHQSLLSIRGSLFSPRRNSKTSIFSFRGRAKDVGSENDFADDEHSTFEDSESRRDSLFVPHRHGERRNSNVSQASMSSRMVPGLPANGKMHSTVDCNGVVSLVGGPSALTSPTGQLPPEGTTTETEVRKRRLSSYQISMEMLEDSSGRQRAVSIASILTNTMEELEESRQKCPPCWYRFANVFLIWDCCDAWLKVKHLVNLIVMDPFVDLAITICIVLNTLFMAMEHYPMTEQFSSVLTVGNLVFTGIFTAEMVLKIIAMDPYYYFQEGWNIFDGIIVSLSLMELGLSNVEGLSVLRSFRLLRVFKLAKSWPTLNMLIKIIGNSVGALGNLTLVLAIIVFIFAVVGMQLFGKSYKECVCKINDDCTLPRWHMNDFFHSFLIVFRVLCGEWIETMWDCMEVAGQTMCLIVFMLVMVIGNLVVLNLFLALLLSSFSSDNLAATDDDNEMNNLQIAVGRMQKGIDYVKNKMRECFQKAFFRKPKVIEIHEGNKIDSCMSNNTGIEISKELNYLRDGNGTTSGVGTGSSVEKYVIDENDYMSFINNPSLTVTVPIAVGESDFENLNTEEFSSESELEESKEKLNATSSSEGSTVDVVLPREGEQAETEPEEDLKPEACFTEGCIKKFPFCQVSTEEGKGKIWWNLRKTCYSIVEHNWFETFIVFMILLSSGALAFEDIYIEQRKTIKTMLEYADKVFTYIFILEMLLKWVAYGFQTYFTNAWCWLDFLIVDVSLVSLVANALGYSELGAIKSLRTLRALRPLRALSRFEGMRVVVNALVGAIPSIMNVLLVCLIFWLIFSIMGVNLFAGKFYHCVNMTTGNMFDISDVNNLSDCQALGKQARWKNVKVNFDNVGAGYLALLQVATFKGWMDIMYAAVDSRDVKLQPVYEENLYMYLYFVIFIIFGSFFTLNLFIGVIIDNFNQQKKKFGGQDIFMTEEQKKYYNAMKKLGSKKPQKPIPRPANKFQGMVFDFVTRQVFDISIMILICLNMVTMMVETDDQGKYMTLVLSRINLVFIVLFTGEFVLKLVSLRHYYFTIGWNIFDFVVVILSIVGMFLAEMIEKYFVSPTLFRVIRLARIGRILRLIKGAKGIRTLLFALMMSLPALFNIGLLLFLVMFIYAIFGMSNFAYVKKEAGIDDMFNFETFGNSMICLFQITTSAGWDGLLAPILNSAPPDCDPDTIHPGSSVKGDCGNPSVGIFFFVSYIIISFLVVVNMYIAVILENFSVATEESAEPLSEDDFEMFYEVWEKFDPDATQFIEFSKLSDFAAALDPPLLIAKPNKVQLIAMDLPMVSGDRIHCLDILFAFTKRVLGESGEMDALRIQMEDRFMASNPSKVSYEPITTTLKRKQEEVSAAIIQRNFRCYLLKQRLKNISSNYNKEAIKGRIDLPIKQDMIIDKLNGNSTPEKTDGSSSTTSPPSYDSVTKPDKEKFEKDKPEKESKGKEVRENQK

In order of rising IC50:
1. CN(C)C(=O)C(CCN1CCC(O)(c2ccc(Cl)cc2)CC1)(c1ccccc1)c1ccccc1 [LOPERAMIDE]  0.27 µM
2. CC(Cc1ccccc1)NCCC(c1ccccc1)c1ccccc1 (centres undefined) [PRENYLAMINE]  0.3 µM
3. COc1cc(C(=O)OCCCN2CCCN(CCCOC(=O)c3cc(OC)c(OC)c(OC)c3)CC2)cc(OC)c1OC [DILAZEP]  0.6 µM
4. CN1CCC(=C2c3ccccc3C=Cc3ccccc32)CC1 [CYPROHEPTADINE]  1 µM
5. CCOc1ccc(/N=C(\C)Nc2ccc(OCC)cc2)cc1 [PHENACAINE]  1.7 µM
6. CC(C)Cn1c(=O)n(C)c(=O)c2nc[nH]c21 [ISOBUTYLMETHYLXANTHINE]  1.8 µM
7. CN(C(=O)CN(CCO)CC(=O)N(C)C(C)(C)Cc1ccccc1)C(C)(C)Cc1ccccc1 [OXETHAZAINE]  2.3 µM
8. COc1cccc(OC)c1OCCNCC1=COc2ccccc2O1  2.4 µM
9. CNCCCN1c2ccccc2CCc2ccccc21 [DESIPRAMINE]  2.4 µM
10. CCCCN(CCCC)CCCOC(=O)c1ccc(N)cc1 [BUTACAINE]  2.7 µM
11. CCN(CC)CCCC(C)Nc1c2ccc(Cl)cc2nc2ccc(OC)cc12 (centres undefined) [QUINACRINE]  3.3 µM
12. OC(CCCN1CCCCC1)(c1ccccc1)c1ccccc1 [DIPHENIDOL]  3.4 µM
13. COc1ccc(CCN(C)CCCC(C#N)(c2cc(OC)c(OC)c(OC)c2)C(C)C)cc1OC (centres undefined) [GALLOPAMIL]  3.6 µM
14. CN(C)CCCN1c2ccccc2CCc2ccccc21 [IMIPRAMINE]  3.6 µM
15. OCCN1CCN(CCCN2c3ccccc3Sc3ccc(C(F)(F)F)cc32)CC1 [FLUPHENAZINE]  3.7 µM
16. CC(C)(C)NCC(CO)O/N=C1\c2ccccc2C2C=CC=CC12 (centres undefined)  3.7 µM
17. CCCC(C(=O)OCCN(CC)CC)(c1ccccc1)c1ccccc1 [PROADIFEN]  4.2 µM
18. CCCC(C(=O)OCC[N+](C)(CC)CC)(c1ccccc1)c1ccccc1.[I-]  4.2 µM
19. CN(C)CCCN1c2ccccc2Sc2ccc(Cl)cc21 [CHLORPROMAZINE]  4.3 µM
20. CN(C)CCCN1c2ccccc2Sc2ccccc21 [PROMAZINE]  5.4 µM
21. CN1CCN2c3ccccc3Cc3ccccc3C2C1 (centres undefined) [MIANSERIN]  5.5 µM
22. CC(CN1c2ccccc2Sc2ccccc21)N(C)C (centres undefined) [PROMETHAZINE]  6.9 µM
23. CC(CNC1CCCCC1)OC(=O)c1ccccc1 (centres undefined) [HEXYLCAINE]  7 µM
24. C=C(c1ccc(Oc2cccc3ccccc23)cc1)C1COC2(CCCCC2)OO1.Cl (centres undefined)  7 µM
25. CCCNC(C)(C)COC(=O)c1ccccc1 [MEPRYLCAINE]  7.6 µM
26. CC(C)NC[C@@H](O)COc1cccc2ccccc12 [DEXPROPRANOLOL]  10 µM
27. COc1cc2nc(N3CCN(C(=O)c4ccco4)CC3)nc(N)c2cc1OC [PRAZOSIN]  10.1 µM
28. CCN(CC)CCCN1C(=O)CC2(CCCc3ccccc32)C1=O (racemic; form 2)  12 µM
29. CC1CCCCN1CCCOC(=O)c1ccccc1 (centres undefined) [PIPEROCAINE]  13 µM
30. O=C1C[C@@H]2OCC=C3CN4CC[C@]56c7ccccc7N1[C@H]5[C@H]2[C@H]3C[C@H]46 [STRYCHNINE]  21 µM
31. CCCOc1cc(N)ccc1C(=O)OCCN(CC)CC [PROPOXYCAINE]  24 µM
32. CCOc1ccc(C(=O)OCCN(CC)CC)cc1 [PARETHOXYCAINE]  24 µM
33. CN1CC[C@]23CCCC[C@H]2[C@H]1Cc1ccc(O)cc13 [LEVORPHANOL]  25 µM
34. COc1ccc(OC)c(C(O)C(C)NC(C)(C)C)c1 (centres undefined) [BUTOXAMINE]  27 µM
35. CCN(CC)CCOC(=O)C1(C2CCCCC2)CCCCC1 [DICYCLOMINE]  28 µM
36. CN(C)CCC(c1ccccc1)c1ccccn1 (centres undefined) [PHENIRAMINE]  33 µM
37. CCOC(=O)C1=C(C)NC(C)=C(C(=O)OC)C1c1cccc([N+](=O)[O-])c1 (centres undefined) [NITRENDIPINE]  36 µM
38. CCOC(=O)C1=C(C)NC(C)=C(C(=O)OC)C1c1cccc(Cl)c1Cl (centres undefined) [FELODIPINE]  37 µM
39. CCN(CC)CCCN1C(=O)CC2(CCCc3ccccc32)C1=O (racemic; form 1)  94 µM
40. CC[N+](CC)(CC)CC(=O)Nc1c(C)cccc1C.[Cl-]  97 µM

In the case of `CN(C)CCC=C1c2ccccc2CCc2ccccc21` [AMITRIPTYLINE], the IC50 is reported as < 10 µM.
For `CN(C)CCC=C1c2ccccc2COc2ccccc21` [DOXEPIN], the IC50 was < 10 µM.
`CNCCC=C1c2ccccc2CCc2ccccc21` [NORTRIPTYLINE] was tested, and the IC50 was < 10 µM.

The compounds below were run against T1, Sodium channel alpha subunits; brain (Types I, II, III). Conditions: Cavia porcellus; Cerebral cortex; at 10 µM.

In order of falling inhibition:
1. CN(C)C(=O)C(CCN1CCC(O)(c2ccc(Cl)cc2)CC1)(c1ccccc1)c1ccccc1 [LOPERAMIDE]  100%
2. COc1cc(C(=O)OCCCN2CCCN(CCCOC(=O)c3cc(OC)c(OC)c(OC)c3)CC2)cc(OC)c1OC [DILAZEP]  99.3%
3. CC(Cc1ccccc1)NCCC(c1ccccc1)c1ccccc1 (centres undefined) [PRENYLAMINE]  98.8%
4. CN(C(=O)CN(CCO)CC(=O)N(C)C(C)(C)Cc1ccccc1)C(C)(C)Cc1ccccc1 [OXETHAZAINE]  83.9%
5. CN1CCC(=C2c3ccccc3C=Cc3ccccc32)CC1 [CYPROHEPTADINE]  83%
6. CCOc1ccc(/N=C(\C)Nc2ccc(OCC)cc2)cc1 [PHENACAINE]  81.1%
7. CNCCCN1c2ccccc2CCc2ccccc21 [DESIPRAMINE]  80.3%
8. CCCC(C(=O)OCCN(CC)CC)(c1ccccc1)c1ccccc1 [PROADIFEN]  75.4%
9. CCCCN(CCCC)CCCOC(=O)c1ccc(N)cc1 [BUTACAINE]  75.3%
10. CCN(CC)CCOC(=O)C1(C2CCCCC2)CCCCC1 [DICYCLOMINE]  75%
11. CN(C)CCC=C1c2ccccc2CCc2ccccc21 [AMITRIPTYLINE]  73.8%
12. CCN(CC)CCCC(C)Nc1c2ccc(Cl)cc2nc2ccc(OC)cc12 (centres undefined) [QUINACRINE]  73.3%
13. OCCN1CCN(CCCN2c3ccccc3Sc3ccc(C(F)(F)F)cc32)CC1 [FLUPHENAZINE]  72.8%
14. CN(C)CCCN1c2ccccc2CCc2ccccc21 [IMIPRAMINE]  72.7%
15. CC(C)(C)NCC(CO)O/N=C1\c2ccccc2C2C=CC=CC12 (centres undefined)  72.5%
16. CN(C)CCCN1c2ccccc2Sc2ccc(Cl)cc21 [CHLORPROMAZINE]  72.2%
17. CCCC(C(=O)OCC[N+](C)(CC)CC)(c1ccccc1)c1ccccc1.[I-]  72%
18. CNCCC=C1c2ccccc2CCc2ccccc21 [NORTRIPTYLINE]  69.4%
19. C=C(c1ccc(Oc2cccc3ccccc23)cc1)C1COC2(CCCCC2)OO1.Cl (centres undefined)  68.3%
20. COc1cccc(OC)c1OCCNCC1=COc2ccccc2O1  67.7%
21. CN(C)CCC=C1c2ccccc2COc2ccccc21 [DOXEPIN]  67.7%
22. COc1ccc(CCN(C)CCCC(C#N)(c2cc(OC)c(OC)c(OC)c2)C(C)C)cc1OC (centres undefined) [GALLOPAMIL]  67.1%
23. CN(C)CCCN1c2ccccc2Sc2ccccc21 [PROMAZINE]  65.3%
24. OC(CCCN1CCCCC1)(c1ccccc1)c1ccccc1 [DIPHENIDOL]  65.1%
25. CC(CN1c2ccccc2Sc2ccccc21)N(C)C (centres undefined) [PROMETHAZINE]  61%
26. COc1cc2nc(N3CCN(C(=O)c4ccco4)CC3)nc(N)c2cc1OC [PRAZOSIN]  58.6%
27. CCCNC(C)(C)COC(=O)c1ccccc1 [MEPRYLCAINE]  57.6%
28. CN1CCN2c3ccccc3Cc3ccccc3C2C1 (centres undefined) [MIANSERIN]  57.4%
29. CC(CNC1CCCCC1)OC(=O)c1ccccc1 (centres undefined) [HEXYLCAINE]  54.9%
30. CC[N+](CC)(CC)CC(=O)Nc1c(C)cccc1C.[Cl-]  52.4%
31. CC(C)NC[C@@H](O)COc1cccc2ccccc12 [DEXPROPRANOLOL]  50%
32. CC1CCCCN1CCCOC(=O)c1ccccc1 (centres undefined) [PIPEROCAINE]  43.6%
33. O=C1C[C@@H]2OCC=C3CN4CC[C@]56c7ccccc7N1[C@H]5[C@H]2[C@H]3C[C@H]46 [STRYCHNINE]  35.7%
34. CCOc1ccc(C(=O)OCCN(CC)CC)cc1 [PARETHOXYCAINE]  33.2%
35. CN1CC[C@]23CCCC[C@H]2[C@H]1Cc1ccc(O)cc13 [LEVORPHANOL]  33%
36. CCCOc1cc(N)ccc1C(=O)OCCN(CC)CC [PROPOXYCAINE]  30%
37. COc1ccc(OC)c(C(O)C(C)NC(C)(C)C)c1 (centres undefined) [BUTOXAMINE]  26.8%
38. CN(C)CCC(c1ccccc1)c1ccccn1 (centres undefined) [PHENIRAMINE]  24.9%
39. CCOC(=O)C1=C(C)NC(C)=C(C(=O)OC)C1c1cccc([N+](=O)[O-])c1 (centres undefined) [NITRENDIPINE]  23.1%
40. CCOC(=O)C1=C(C)NC(C)=C(C(=O)OC)C1c1cccc(Cl)c1Cl (centres undefined) [FELODIPINE]  20.1%
41. CC(C)Cn1c(=O)n(C)c(=O)c2nc[nH]c21 [ISOBUTYLMETHYLXANTHINE]  0.9%
